Data set [1] has as its system cytochrome p450 (CYP) IAI gene. Description: MC RT-PCR with Celi competitive templates: induction of CYPIAI gene expression in β-napthoflavone-exposed BEP2D cells. In kind it is cell-based, human. The note with it: β-napthoflavone 10 μM, varying times, control 0.1% DMSO, cDNA loading matched by GAPDH native/competitive template bands. On the procedure:
(§1) In a second set of experiments, multiplex competitive reverse transcriptase polymerase chain reaction (MC RT-PCR) with competitive templates were prepared by the Celi method to evaluate the cytochrome p450 (CYP) IAI gene in β-napthoflavone-exposed BEP2D cells. The induction of CYPIAI gene expression was evaluated using both MC RT-PCR with Celi competitive templates, and Northern analysis. Competitive templates were prepared for both the CYPIAI and GAPDH genes. The primers used to prepare the competitive template for GAPDH were: […]
The PCR amplification conditions were the same as described for experiments using the competitive templates prepared for GAPDH and GSHPx by the Higuchi method except the annealing temperature was 55 degrees centigrade and the amplification was carried out for 38 cycles.
Because the native and competitive templates separate without prior restriction endonuclease digestion, samples were taken directly from the PCR reaction tube and applied to ethidium bromide stained 3% Nusieve, 1% LE agarose gels. It was then possible to quantify the products by taking a negative photograph of the gel using Polaroid 665 positive/negative instant film, subjecting the negative photograph to densitometry. […]

Data set [2] relates to cytochrome p450 IA1 (CYPIA1). In words: Northern analysis of CYPIAI gene expression in β-napthoflavone-exposed BEP2D cells. In kind it is cell-based, human. The note with it: β-napthoflavone 10 μM, varying times, control 0.1% DMSO, 32P-labeled CYPIAI cDNA probe. How it is done:
as §1
RNA from BEP2D cells incubated for varying times with β-napthoflavone (10 μM) was either electrophoresed on a 1% LE formaldehyde denaturing gel for Northern analysis or MC RT-PCR amplified, as described above. For Northern analysis, following transfer of the RNA to GeneScreen, the filters were hybridized with ^32P-labeled CYPIAI cDNA.

These results are taken from patent publication US8981068B2, “Compositions of standardized mixtures for determining an amount of a nucleic acid” (Gene Express, Inc., priority 2005, dated 2015).

Each structure is given as a SMILES string.

For `O=c1cc(-c2ccccc2)oc2ccc3ccccc3c12` [β-napthoflavone], the “band representing the native CYPIAI gene, exposed cells compared to control cells” value in data set [1] is on record as “much more strongly represented”. Further, the “CYPIAI gene expression by Northern analysis” value in data set [2] is reported as “increase”.
